Laboratory results as given in the supplement of paper PMC10307832.

Experiments:
Experiment in all cases: relative viability (nuclei count vs DMSO), 5 days (fraction); higher = more cells survive
[1] = compound: O=C(O)c1ccc2c(c1)nc(Nc1cccc(Cl)c1)c1ccncc12 [Silmitasertib] + N=C(N)NC(=N)NCCc1ccccc1 [Phenformin] (partner 250 µM)
Method in brief: (§1)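 Each reported value is a median over duplicate plates. It expresses relative viability: treated-well nuclei count divided by vehicle-well nuclei count. Lung cancer cell lines in 1536-well plates were dosed by pin tool a day after seeding, alone with one drug or with a fixed anchor-drug dose plus five library-drug doses (not always all listed) in √10 steps, and nuclei were counted after 5 days.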

[2] = compound: O=C(O)c1ccc2c(c1)nc(Nc1cccc(Cl)c1)c1ccncc12 [Silmitasertib] + Nc1ncn([C@H]2C[C@H](O)[C@@H](CO)O2)c(=O)n1 [Decitabine] (partner 2 µM)
Method in brief: as §1

[3] = compound: O=C(O)c1ccc2c(c1)nc(Nc1cccc(Cl)c1)c1ccncc12 [Silmitasertib] + Cc1cc(Nc2cc(N3CCN(C)CC3)nc(Sc3ccc(NC(=O)C4CC4)cc3)n2)n[nH]1 [Tozasertib] (partner 0.1 µM)
Method in brief: as §1

[4] = compound: O=C(O)c1ccc2c(c1)nc(Nc1cccc(Cl)c1)c1ccncc12 [Silmitasertib] + Nc1nc2[nH]cc(CCc3ccc(C(=O)N[C@@H](CCC(=O)O)C(=O)O)cc3)c2c(=O)[nH]1 [Pemetrexed] (partner 0.2 µM)
Method in brief: as §1

[5] = compound: O=C(O)c1ccc2c(c1)nc(Nc1cccc(Cl)c1)c1ccncc12 [Silmitasertib] + CC(=O)c1c(C)c2cnc(Nc3ccc(N4CCNCC4)cn3)nc2n(C2CCCC2)c1=O [Palbociclib] (partner 0.5 µM)
Method in brief: as §1

Silmitasertib + OSI-027 = compound: O=C(O)c1ccc2c(c1)nc(Nc1cccc(Cl)c1)c1ccncc12 [Silmitasertib] + COc1cccc2cc(-c3nc([C@H]4CC[C@H](C(=O)O)CC4)n4ncnc(N)c34)[nH]c12 [OSI-027] (partner 0.5 µM)
Method in brief: as §1

[6] = compound: O=C(O)c1ccc2c(c1)nc(Nc1cccc(Cl)c1)c1ccncc12 [Silmitasertib] + O=C(CCCCCCC(=O)Nc1ccccc1)NO [Vorinostat] (partner 1 µM)
Method in brief: as §1

Silmitasertib + AZD7762 = compound: O=C(O)c1ccc2c(c1)nc(Nc1cccc(Cl)c1)c1ccncc12 [Silmitasertib] + NC(=O)Nc1cc(-c2cccc(F)c2)sc1C(=O)N[C@H]1CCCNC1 [AZD7762] (partner 0.2 µM)
Method in brief: as §1

[7] = compound: O=C(O)c1ccc2c(c1)nc(Nc1cccc(Cl)c1)c1ccncc12 [Silmitasertib] + CCNC(=O)c1noc(-c2cc(C(C)C)c(O)cc2O)c1-c1ccc(CN2CCOCC2)cc1 [Luminespib] (partner 0.01 µM)
Method in brief: as §1

[8] = compound: O=C(O)c1ccc2c(c1)nc(Nc1cccc(Cl)c1)c1ccncc12 [Silmitasertib] + Cc1nc(Nc2ncc(C(=O)Nc3c(C)cccc3Cl)s2)cc(N2CCN(CCO)CC2)n1 [Dasatinib] (partner 0.075 µM)
Method in brief: as §1

[9] = compound: O=C(O)c1ccc2c(c1)nc(Nc1cccc(Cl)c1)c1ccncc12 [Silmitasertib] + CC(=O)Nc1cccc(-n2c(=O)n(C3CC3)c(=O)c3c(Nc4ccc(I)cc4F)n(C)c(=O)c(C)c32)c1 [Trametinib] (partner 0.02 µM)
Method in brief: as §1

[10] = compound: O=C(O)c1ccc2c(c1)nc(Nc1cccc(Cl)c1)c1ccncc12 [Silmitasertib] + COc1cc2c(Oc3ccc(NC(=O)C4(C(=O)Nc5ccc(F)cc5)CC4)cc3F)ccnc2cc1OCCCN1CCOCC1 [Foretinib] (partner 0.25 µM)
Method in brief: as §1

Silmitasertib + Olaparib = compound: O=C(O)c1ccc2c(c1)nc(Nc1cccc(Cl)c1)c1ccncc12 [Silmitasertib] + O=C(c1cc(Cc2n[nH]c(=O)c3ccccc23)ccc1F)N1CCN(C(=O)C2CC2)CC1 [Olaparib] (partner 8 µM)
Method in brief: as §1

Silmitasertib = compound: O=C(O)c1ccc2c(c1)nc(Nc1cccc(Cl)c1)c1ccncc12 [Silmitasertib]
Method in brief: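 Vehicle-anchored 1536-well plates of lung cancer cell lines, held overnight at 37 °C, were pinned with five library-drug doses (not always all listed) spaced by √10. No medium change followed over the next 5 days, after which the cells were fixed, permeabilised and Hoechst-stained together and imaged at 4×. Nuclei were counted with MetaXpress, and viability is treated-well nuclei over vehicle-well nuclei, taken as a median across plates. Plates passed with control CV below 25% and at least one doubling.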

SW 900 gave a relative viability ([1]; first compound 0.04 µM) of 0.817, a relative viability ([1]; first compound 0.4 µM) of 0.34 and a relative viability ([1]; first compound 1.265 µM) of 0.452. It also gave a relative viability ([1]; first compound 4 µM) of 0.24, a relative viability ([2]; first compound 0.04 µM) of 0.499 and a relative viability ([2]; first compound 0.4 µM) of 0.422. The relative viability ([2]; first compound 1.265 µM) was 0.377, the relative viability ([2]; first compound 4 µM) was 0.347 and the relative viability ([3]; first compound 0.04 µM) was 0.649. It also gave a relative viability ([3]; first compound 0.4 µM) of 0.413, a relative viability ([3]; first compound 1.265 µM) of 0.38 and a relative viability ([3]; first compound 4 µM) of 0.349. It also gave a relative viability ([4]; first compound 0.04 µM) of 0.493, a relative viability ([4]; first compound 0.4 µM) of 0.463 and a relative viability ([4]; first compound 1.265 µM) of 0.464. It also gave a relative viability ([4]; first compound 4 µM) of 0.258, a relative viability ([5]; first compound 0.04 µM) of 0.538 and a relative viability ([5]; first compound 0.4 µM) of 0.624. For the same cell line, the relative viability ([5]; first compound 1.265 µM) was 0.507, the relative viability ([5]; first compound 4 µM) was 0.492 and the relative viability (Silmitasertib + OSI-027; first compound 0.04 µM) was 0.648. For the same cell line, the relative viability (Silmitasertib + OSI-027; first compound 0.4 µM) was 0.304, the relative viability (Silmitasertib + OSI-027; first compound 1.265 µM) was 0.388 and the relative viability (Silmitasertib + OSI-027; first compound 4 µM) was 0.207. For the same cell line, the relative viability ([6]; first compound 0.04 µM) was 0.585, the relative viability ([6]; first compound 0.4 µM) was 0.403 and the relative viability ([6]; first compound 1.265 µM) was 0.446. It also gave a relative viability ([6]; first compound 4 µM) of 0.172, a relative viability (Silmitasertib + AZD7762; first compound 0.04 µM) of 0.72 and a relative viability (Silmitasertib + AZD7762; first compound 0.4 µM) of 0.578. It also gave a relative viability (Silmitasertib + AZD7762; first compound 1.265 µM) of 0.691, a relative viability (Silmitasertib + AZD7762; first compound 4 µM) of 0.338 and a relative viability ([7]; first compound 0.04 µM) of 0.188. For the same cell line, the relative viability ([7]; first compound 0.4 µM) was 0.167, the relative viability ([7]; first compound 1.265 µM) was 0.157 and the relative viability ([7]; first compound 4 µM) was 0.178. It also gave a relative viability ([8]; first compound 0.04 µM) of 0.82, a relative viability ([8]; first compound 0.4 µM) of 0.316 and a relative viability ([8]; first compound 1.265 µM) of 0.614. For the same cell line, the relative viability ([8]; first compound 4 µM) was 0.398, the relative viability ([9]; first compound 0.04 µM) was 0.929 and the relative viability ([9]; first compound 0.4 µM) was 0.624. It also gave a relative viability ([9]; first compound 1.265 µM) of 0.647, a relative viability ([9]; first compound 4 µM) of 0.492 and a relative viability ([10]; first compound 0.04 µM) of 1.05. The relative viability ([10]; first compound 0.4 µM) was 0.477, the relative viability ([10]; first compound 1.265 µM) was 0.817 and the relative viability ([10]; first compound 4 µM) was 0.424. For the same cell line, the relative viability (Silmitasertib + Olaparib; first compound 0.04 µM) was 0.883, the relative viability (Silmitasertib + Olaparib; first compound 0.4 µM) was 0.701 and the relative viability (Silmitasertib + Olaparib; first compound 1.265 µM) was 0.739. For the same cell line, the relative viability (Silmitasertib + Olaparib; first compound 4 µM) was 0.568, the relative viability (Silmitasertib; 0.04 µM) was 1.02 and the relative viability (Silmitasertib; 0.4 µM) was 0.503. For the same cell line, the relative viability (Silmitasertib; 1.265 µM) was 0.651 and the relative viability (Silmitasertib; 4 µM) was 0.295.
With NCI-H522 the relative viability ([1]; first compound 0.04 µM) was 0.669, the relative viability ([1]; first compound 0.4 µM) was 0.554 and the relative viability ([1]; first compound 1.265 µM) was 0.626. For the same cell line, the relative viability ([1]; first compound 4 µM) was 0.678, the relative viability ([2]; first compound 0.04 µM) was 0.653 and the relative viability ([2]; first compound 0.4 µM) was 0.62. For the same cell line, the relative viability ([2]; first compound 1.265 µM) was 0.69, the relative viability ([2]; first compound 4 µM) was 0.655 and the relative viability ([3]; first compound 0.04 µM) was 0.611. It also gave a relative viability ([3]; first compound 0.4 µM) of 0.464, a relative viability ([3]; first compound 1.265 µM) of 0.541 and a relative viability ([3]; first compound 4 µM) of 0.574. The relative viability ([4]; first compound 0.04 µM) was 0.986, the relative viability ([4]; first compound 0.4 µM) was 0.846 and the relative viability ([4]; first compound 1.265 µM) was 1. The relative viability ([4]; first compound 4 µM) was 1.15, the relative viability ([5]; first compound 0.04 µM) was 1.02 and the relative viability ([5]; first compound 0.4 µM) was 0.801. For the same cell line, the relative viability ([5]; first compound 1.265 µM) was 0.903, the relative viability ([5]; first compound 4 µM) was 1.04 and the relative viability (Silmitasertib + OSI-027; first compound 0.04 µM) was 0.739. It also gave a relative viability (Silmitasertib + OSI-027; first compound 0.4 µM) of 0.762, a relative viability (Silmitasertib + OSI-027; first compound 1.265 µM) of 0.684 and a relative viability (Silmitasertib + OSI-027; first compound 4 µM) of 0.67. The relative viability ([6]; first compound 0.04 µM) was 0.99, the relative viability ([6]; first compound 0.4 µM) was 0.715 and the relative viability ([6]; first compound 1.265 µM) was 0.929. For the same cell line, the relative viability ([6]; first compound 4 µM) was 0.863, the relative viability (Silmitasertib + AZD7762; first compound 0.04 µM) was 0.89 and the relative viability (Silmitasertib + AZD7762; first compound 0.4 µM) was 0.841. The relative viability (Silmitasertib + AZD7762; first compound 1.265 µM) was 0.822, the relative viability (Silmitasertib + AZD7762; first compound 4 µM) was 0.819 and the relative viability ([7]; first compound 0.04 µM) was 1.71. The relative viability ([7]; first compound 0.4 µM) was 0.859, the relative viability ([7]; first compound 1.265 µM) was 0.938 and the relative viability ([7]; first compound 4 µM) was 1.24. For the same cell line, the relative viability ([8]; first compound 0.04 µM) was 0.876, the relative viability ([8]; first compound 0.4 µM) was 0.785 and the relative viability ([8]; first compound 1.265 µM) was 0.788. The relative viability ([8]; first compound 4 µM) was 0.849, the relative viability ([9]; first compound 0.04 µM) was 0.715 and the relative viability ([9]; first compound 0.4 µM) was 0.68. The relative viability ([9]; first compound 1.265 µM) was 0.814, the relative viability ([9]; first compound 4 µM) was 0.817 and the relative viability (Silmitasertib + Olaparib; first compound 0.04 µM) was 0.633. For the same cell line, the relative viability (Silmitasertib + Olaparib; first compound 0.4 µM) was 0.58, the relative viability (Silmitasertib + Olaparib; first compound 1.265 µM) was 0.774 and the relative viability (Silmitasertib + Olaparib; first compound 4 µM) was 0.592. The relative viability (Silmitasertib; 0.04 µM) was 1.09, the relative viability (Silmitasertib; 0.4 µM) was 0.788 and the relative viability (Silmitasertib; 1.265 µM) was 0.82. For the same cell line, the relative viability (Silmitasertib; 4 µM) was 0.694.
